Laboratory results from PubChem BioAssay (NCI).
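Test compounds were applied to cells in 96-well plates for 48 hours at 5 doses. The concentration for 50% growth inhibition is given as GI50. TGI marks complete inhibition of growth.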

Assays:
Assay in all cases: growth of human tumour cells (NCI), 48 h; in the data active = GI50 below about 0.43 µM; inactive = the rest
U251 CNS = tested on: U251 CNS
NCI-H23 lung = tested on: NCI-H23 lung
SK-OV-3 ovarian = tested on: SK-OV-3 ovarian
KM12 colon = tested on: KM12 colon
EKVX NSCLC = tested on: EKVX NSCLC
MOLT-4 leukemia = tested on: MOLT-4 leukemia
BT-549 breast = tested on: BT-549 breast
MDA-MB-435 = tested on: MDA-MB-435
HT29 colon = tested on: HT29 colon
RXF 393 renal = tested on: RXF 393 renal
TK-10 renal = tested on: TK-10 renal
SR leukemia = tested on: SR leukemia
SN12C renal = tested on: SN12C renal
OVCAR-5 ovarian = tested on: OVCAR-5 ovarian
NCI/ADR-RES ovarian = tested on: NCI/ADR-RES ovarian
MALME-3M melanoma = tested on: MALME-3M melanoma
MCF7 breast = tested on: MCF7 breast
NCI-H522 lung = tested on: NCI-H522 lung
DU-145 prostate = tested on: DU-145 prostate
NCI-H226 lung = tested on: NCI-H226 lung
HCC-2998 colon = tested on: HCC-2998 colon
NCI-H460 lung = tested on: NCI-H460 lung
786-0 renal = tested on: 786-0 renal
SK-MEL-5 melanoma = tested on: SK-MEL-5 melanoma
SNB-19 CNS = tested on: SNB-19 CNS
M14 melanoma = tested on: M14 melanoma
CAKI-1 renal = tested on: CAKI-1 renal
SF-295 CNS = tested on: SF-295 CNS
HCT-116 colon = tested on: HCT-116 colon
UACC-257 melanoma = tested on: UACC-257 melanoma
A498 renal = tested on: A498 renal
HCT-15 colon = tested on: HCT-15 colon
COLO 205 colon = tested on: COLO 205 colon
SF-539 CNS = tested on: SF-539 CNS
OVCAR-8 ovarian = tested on: OVCAR-8 ovarian
OVCAR-4 ovarian = tested on: OVCAR-4 ovarian
MDA-MB-231 breast = tested on: MDA-MB-231 breast
UO-31 renal = tested on: UO-31 renal
HL-60(TB) leukemia = tested on: HL-60(TB) leukemia
HOP-62 NSCLC = tested on: HOP-62 NSCLC
A549 NSCLC = tested on: A549 NSCLC
ACHN renal = tested on: ACHN renal
OVCAR-3 ovarian = tested on: OVCAR-3 ovarian
SNB-75 CNS = tested on: SNB-75 CNS
SF-268 CNS = tested on: SF-268 CNS
SK-MEL-2 melanoma = tested on: SK-MEL-2 melanoma
RPMI-8226 leukemia = tested on: RPMI-8226 leukemia
HS 578T breast = tested on: HS 578T breast
SW-620 colon = tested on: SW-620 colon
CCRF-CEM leukemia = tested on: CCRF-CEM leukemia
HOP-92 NSCLC = tested on: HOP-92 NSCLC
K-562 leukemia = tested on: K-562 leukemia
IGROV1 ovarian = tested on: IGROV1 ovarian
LOX IMVI melanoma = tested on: LOX IMVI melanoma
PC-3 prostate = tested on: PC-3 prostate
SK-MEL-28 melanoma = tested on: SK-MEL-28 melanoma
UACC-62 melanoma = tested on: UACC-62 melanoma

CCN1C(=O)N(CC)C2C1NN=c1s/c(=C\c3ccco3)c(=O)n12 (centres undefined)
> 23.6 µM: TGI (COLO 205 colon)
> 35.5 µM: TGI (M14 melanoma)
55.3 µM: TGI (SK-MEL-5 melanoma)
> 23.4 µM: TGI (RXF 393 renal)
6 µM: TGI (HL-60(TB) leukemia)
0.58 µM: TGI (MDA-MB-435)
> 89.7 µM: TGI (CAKI-1 renal)
inactive: GI50 (U251 CNS) 0.576 µM | GI50 (NCI-H23 lung) 1.1 µM | GI50 (SK-OV-3 ovarian) 0.816 µM | GI50 (EKVX NSCLC) 1.7 µM | GI50 (MOLT-4 leukemia) 0.824 µM | GI50 (BT-549 breast) 0.791 µM | GI50 (RXF 393 renal) 0.558 µM | GI50 (TK-10 renal) 19.7 µM | GI50 (SN12C renal) 0.941 µM | GI50 (OVCAR-5 ovarian) 1.31 µM | GI50 (MALME-3M melanoma) 2.15 µM | GI50 (DU-145 prostate) 0.703 µM | GI50 (HCC-2998 colon) 1.98 µM | GI50 (786-0 renal) 0.571 µM | GI50 (SNB-19 CNS) 0.741 µM | GI50 (CAKI-1 renal) 0.468 µM | GI50 (SF-295 CNS) 0.47 µM | GI50 (HCT-116 colon) 0.436 µM | GI50 (UACC-257 melanoma) > 100 µM | GI50 (HCT-15 colon) 0.481 µM | GI50 (OVCAR-8 ovarian) 1.43 µM | GI50 (OVCAR-4 ovarian) 4.24 µM | GI50 (MDA-MB-231 breast) 0.961 µM | GI50 (UO-31 renal) 0.852 µM | GI50 (HOP-62 NSCLC) 0.722 µM | GI50 (A549 NSCLC) 0.801 µM | GI50 (ACHN renal) 0.818 µM | GI50 (SF-268 CNS) 0.791 µM | GI50 (SK-MEL-2 melanoma) 0.84 µM | GI50 (RPMI-8226 leukemia) 0.438 µM | GI50 (HS 578T breast) 0.459 µM | GI50 (SW-620 colon) 0.439 µM | GI50 (IGROV1 ovarian) 1.16 µM | GI50 (LOX IMVI melanoma) 0.653 µM | GI50 (PC-3 prostate) 0.455 µM | GI50 (SK-MEL-28 melanoma) > 22.8 µM | GI50 (UACC-62 melanoma) 0.446 µM
41.2 µM: TGI (MDA-MB-231 breast)
> 100 µM: TGI (U251 CNS) | TGI (NCI-H23 lung) | TGI (SK-OV-3 ovarian) | TGI (KM12 colon) | TGI (EKVX NSCLC) | TGI (MOLT-4 leukemia) | TGI (BT-549 breast) | TGI (HT29 colon) | TGI (TK-10 renal) | TGI (SR leukemia) | TGI (SN12C renal) | TGI (OVCAR-5 ovarian) | TGI (NCI/ADR-RES ovarian) | TGI (MALME-3M melanoma) | TGI (MCF7 breast) | TGI (DU-145 prostate) | TGI (NCI-H226 lung) | TGI (HCC-2998 colon) | TGI (NCI-H460 lung) | TGI (786-0 renal) | TGI (SNB-19 CNS) | TGI (HCT-116 colon) | TGI (UACC-257 melanoma) | TGI (HCT-15 colon) | TGI (OVCAR-8 ovarian) | TGI (OVCAR-4 ovarian) | TGI (UO-31 renal) | TGI (HOP-62 NSCLC) | TGI (A549 NSCLC) | TGI (ACHN renal) | TGI (SF-268 CNS) | TGI (SK-MEL-2 melanoma) | TGI (RPMI-8226 leukemia) | TGI (HS 578T breast) | TGI (SW-620 colon) | TGI (CCRF-CEM leukemia) | TGI (HOP-92 NSCLC) | TGI (K-562 leukemia) | TGI (IGROV1 ovarian) | TGI (LOX IMVI melanoma) | TGI (PC-3 prostate) | TGI (SK-MEL-28 melanoma) | TGI (UACC-62 melanoma)
active: GI50 (KM12 colon) 0.394 µM | GI50 (MDA-MB-435) 0.138 µM | GI50 (HT29 colon) 0.361 µM | GI50 (SR leukemia) 0.196 µM | GI50 (NCI/ADR-RES ovarian) 0.417 µM | GI50 (MCF7 breast) 0.361 µM | GI50 (NCI-H522 lung) 0.33 µM | GI50 (NCI-H460 lung) 0.403 µM | GI50 (SK-MEL-5 melanoma) 0.415 µM | GI50 (M14 melanoma) 0.415 µM | GI50 (A498 renal) 0.39 µM | GI50 (COLO 205 colon) 0.403 µM | GI50 (SF-539 CNS) 0.402 µM | GI50 (HL-60(TB) leukemia) 0.284 µM | GI50 (OVCAR-3 ovarian) 0.334 µM | GI50 (SNB-75 CNS) 0.239 µM | GI50 (CCRF-CEM leukemia) 0.368 µM | GI50 (HOP-92 NSCLC) 0.349 µM | GI50 (K-562 leukemia) 0.311 µM
> 44.6 µM: TGI (SF-295 CNS)
6.48 µM: TGI (SF-539 CNS)
